Assay results as given in patent publication US20240317706A1, “COMPOUNDS THAT MEDIATE PROTEIN DEGRADATION AND METHODS OF USE THEREOF” (Monte Rosa Therapeutics, Inc., priority 2021, published 2024).

Columns and labels:
CRBN-DDB1 = CRBN-DDB1 (Homo sapiens, UniProt Q96SW2); experiment: Compound binding to CRBN by HTRF assay; conditions: CRBN-DDB1 2.5 nM, Cy5-Thalidomide 100 nM, 30 min; Ki from geometric mean IC50 by Cheng-Prustoff transformation
Description: Compound activity was monitored in a Homogenous Time-Resolved Fluorescence (HTRF) assay using 1-[5-({2-[2-(2-{[2-(2,6-dioxopiperidin-3-yl)-1,3-dioxo-2,3-dihydro-1H-isoindol-4-yl]oxy}acetamido)ethoxy]ethyl}carbamoyl)pentyl]-3,3-dimethyl-2-[(1E,3E)-5-[(2E)-1,3,3-trimethyl-5-sulfo-2,3-dihydro-1H-indol-2-ylidene]penta-1,3-dien-1-yl]-3H-indol-1-ium-5-sulfonate as a fluorescent probe. Biochemical assays were conducted in Greiner white 384 well HiBase plates (Cat. No 784075-25) in 10 μL total volume. A one pot detection solution of CRBN-DDB1 (2.5 nM), Anti-His Terbium Cryptate Gold (1×, PerkinElmer Cat. #: 61HI2TLB), and Cy5-Thalidomide (100 nM, Tenova Cat.: T52461) was prepared in 20 mM HEPES, 20 mM NaCl, 0.2 mM TCEP, 0.2 mM EDTA, and 0.005% Tween20 was dispensed to each assay plate. Compounds were stored in dry, ambient temperatures at 10 mM. A 10-point, 1:3 dilution series was prepared from 10 mM stock concentrations in Echo-compatible LDV plates. 10 nL of each compound dilution series was dispensed into assays wells using an Echo 650 (Labcyte inc. USA). 10 nL of 10 mM Lenalidomide was transferred into the active-control wells for the assay and 10 nL of DMSO was transferred into the neutral-control wells. The assay was then allowed to incubate for 30 min at ambient temperature after transferring compound. Plate measurements were taken on a Pherastar FSX (BMG Labtech, Germany) using the HTRF Red filter (Ex. 337 nm, em1: 620 nm, em2: 665 nm) (Flashes: 50, Integration time: 60-400 us, Z-height: 10 mm, Ratio-multiplier: 10,000). The HTRF signal was then subsequently normalized to the neutral and active controls. Analysis and IC50 values were derived using KNIME analytics (KNIME Zurich) transformation and fitting within Collaborative Drug Discovery (Collaborative Drug Discovery USA). Ki was derived from the geometric mean of the IC50 values using the Cheng-Prustoff transformation.

CDK2 = target: T1, CDK2 (Homo sapiens, UniProt P24941); experiment: NanoBiT assay (CDK2 degradation); type: cell-based; conditions: HEK293, HEK293 clonal line with CRISPR KI HiBiT tag on CDK2, Endurazine live cell substrate, 24 hours
T1 construct: HEK293 clonal lines with CRISPR KI HiBiT tag on CDK2 proteins; host or cells: HEK293 clonal line, CRISPR knock-in HiBiT-CDK2, stably expressing LgBiT
Description: HEK293 clonal lines with CRISPR KI HiBiT tag on either CDK2 proteins and stably expressing LgBiT protein were obtained from Promega (Madison, WI). Cells were plated at 5000 cells per well using Multiflo (BioTek) in 384-well white solid bottom plates (Corning, 3570BC) in 25 ul volume in DMEM media (DMEM, high glucose, HEPES, no phenol red (ThermoFisher Scientific, 21063029)) containing 10% FBS (Corning, 35-075-CV), 1% Penicillin/Streptomycin ((ThermoFisher Scientific, 15140-122), and 1% Endurazine (Nano-Glo Endurazine Live Cell Substrate (Promega, N2571)). Cells were incubated for 16 hours at 37 C, 5% CO2. 75 nL of a compound at 30 μM were dosed into the plate using an Echo® 650 liquid handler (Labcyte). Cells were incubated at 37° C., 5% CO2 for 24 hours and then signal was read on a Pherastar FSX using “LUM plus” optic module.
Analysis was performed in Scinamic (Scinamic, Cambridge, MA). Luminescence response (R) was calculated by the formula: response=100*(S−N)/(P−N) where S is the signal of the well, N and P the mean negative and positive control values respectively of the same plate. The luminescence response was then fitted in Scinamic using a 3-parameter agonist logistic fit (hillslope=1, EC50>0, top/bottom unconstrained).

Chain of CRBN-DDB1 (Q96SW2 whole entry): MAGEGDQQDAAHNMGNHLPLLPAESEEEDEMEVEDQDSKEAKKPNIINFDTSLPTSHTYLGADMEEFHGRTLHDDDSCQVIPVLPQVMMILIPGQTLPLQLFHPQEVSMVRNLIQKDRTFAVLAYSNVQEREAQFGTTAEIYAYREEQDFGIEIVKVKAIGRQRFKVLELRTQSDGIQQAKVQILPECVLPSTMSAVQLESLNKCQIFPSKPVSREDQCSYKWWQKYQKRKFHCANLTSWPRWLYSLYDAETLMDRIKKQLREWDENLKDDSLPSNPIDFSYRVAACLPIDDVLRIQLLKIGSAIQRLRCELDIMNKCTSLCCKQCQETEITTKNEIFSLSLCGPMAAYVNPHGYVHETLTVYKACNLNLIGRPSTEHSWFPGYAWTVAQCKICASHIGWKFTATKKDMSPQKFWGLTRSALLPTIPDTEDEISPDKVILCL
Chain of CRBN-DDB1 (Q16531 whole entry partner): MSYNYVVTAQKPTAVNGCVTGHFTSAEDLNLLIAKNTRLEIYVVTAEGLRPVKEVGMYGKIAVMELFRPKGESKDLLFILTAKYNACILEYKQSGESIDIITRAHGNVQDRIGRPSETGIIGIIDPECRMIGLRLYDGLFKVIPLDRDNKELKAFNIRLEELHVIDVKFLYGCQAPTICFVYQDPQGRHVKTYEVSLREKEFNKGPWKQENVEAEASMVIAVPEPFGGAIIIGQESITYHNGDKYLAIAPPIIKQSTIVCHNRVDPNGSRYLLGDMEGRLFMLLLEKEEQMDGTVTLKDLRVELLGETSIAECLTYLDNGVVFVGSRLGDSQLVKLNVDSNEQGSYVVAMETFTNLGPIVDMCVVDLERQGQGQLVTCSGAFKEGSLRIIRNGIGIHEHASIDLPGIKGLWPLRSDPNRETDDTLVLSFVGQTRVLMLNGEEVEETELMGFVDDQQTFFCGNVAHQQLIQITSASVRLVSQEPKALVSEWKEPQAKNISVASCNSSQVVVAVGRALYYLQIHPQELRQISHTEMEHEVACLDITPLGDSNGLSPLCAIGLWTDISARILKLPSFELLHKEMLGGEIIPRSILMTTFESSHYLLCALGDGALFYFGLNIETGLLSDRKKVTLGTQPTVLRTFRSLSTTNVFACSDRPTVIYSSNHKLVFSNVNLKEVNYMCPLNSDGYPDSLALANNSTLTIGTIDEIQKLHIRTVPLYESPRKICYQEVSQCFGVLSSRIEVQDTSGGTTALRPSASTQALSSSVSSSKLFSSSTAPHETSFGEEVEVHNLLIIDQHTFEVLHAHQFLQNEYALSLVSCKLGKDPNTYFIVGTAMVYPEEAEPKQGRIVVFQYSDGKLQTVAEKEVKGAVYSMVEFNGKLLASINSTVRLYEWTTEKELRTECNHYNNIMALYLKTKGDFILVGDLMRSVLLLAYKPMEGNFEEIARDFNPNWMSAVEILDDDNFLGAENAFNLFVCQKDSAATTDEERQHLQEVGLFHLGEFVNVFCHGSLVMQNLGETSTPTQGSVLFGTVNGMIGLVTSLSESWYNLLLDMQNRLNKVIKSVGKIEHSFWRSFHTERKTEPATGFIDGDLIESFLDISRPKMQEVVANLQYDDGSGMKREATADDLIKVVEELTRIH

Compound	Ki (CRBN-DDB1) [nM]	Dmax (CDK2) [%]
CC(C)(C)OC(=O)N1CC(COC(=O)NCc2ccc3c(c2)C(=O)N(C2CCC(=O)NC2=O)C3)C1 (centres unmarked) [Compound 45, tert-butyl 3-{[({[2-(2,6-dioxopiperidin-3-yl)-3-oxo-2,3-dihydro-1H-isoindol-5-yl]methyl}carbamoyl)oxy]methyl}azetidine-1-carboxylate]	100 to 1000	≤ 10
COCC(OC(=O)NCc1ccc2c(c1)C(=O)N(C1CCC(=O)NC1=O)C2)C1CC1 (centres unmarked) [Compound 49, 1-cyclopropyl-2-methoxyethyl N-{[2-(2,6-dioxopiperidin-3-yl)-3-oxo-2,3-dihydro-1H-isoindol-5-yl]methyl}carbamate]	100 to 1000	10 to 50
O=C1CCC(N2Cc3ccc(CNC(=O)OCC4CCS(=O)(=O)C4)cc3C2=O)C(=O)N1 (centres unmarked) [Compound 51, (1,1-dioxo-1lambda6-thiolan-3-yl)methyl N-{[2-(2,6-dioxopiperidin-3-yl)-3-oxo-2,3-dihydro-1H-isoindol-5-yl]methyl}carbamate]	≤ 100	≤ 10
C[C@H](CC1CC1)OC(=O)NCc1ccc2c(c1)C(=O)N(C1CCC(=O)NC1=O)C2 (stereo partly drawn) [Compound 56, (2R)-1-cyclopropylpropan-2-yl N-{[2-(2,6-dioxopiperidin-3-yl)-3-oxo-2,3-dihydro-1H-isoindol-5-yl]methyl}carbamate]	100 to 1000	10 to 50
CC(COC(=O)NCc1ccc2c(c1)C(=O)N(C1CCC(=O)NC1=O)C2)C1CCC1 (centres unmarked) [Compound 58, 2-cyclobutylpropyl N-{[2-(2,6-dioxopiperidin-3-yl)-3-oxo-2,3-dihydro-1H-isoindol-5-yl]methyl}carbamate]	≤ 100	≤ 10
CC12COC(COC(=O)NCc3ccc4c(c3)C(=O)N(C3CCC(=O)NC3=O)C4)(C1)C2 (centres unmarked) [Compound 72, {4-methyl-2-oxabicyclo[2.1.1]hexan-1-yl}methyl N-{[2-(2,6-dioxopiperidin-3-yl)-3-oxo-2,3-dihydro-1H-isoindol-5-yl]methyl}carbamate]	100 to 1000	≤ 10
O=C1CCC(N2Cc3ccc(CNC(=O)OCC4(C5CC5)CC4)cc3C2=O)C(=O)N1 (centres unmarked) [Compound 77, {[1,1′-bi(cyclopropane)]-1-yl}methyl N-{[2-(2,6-dioxopiperidin-3-yl)-3-oxo-2,3-dihydro-1H-isoindol-5-yl]methyl}carbamate]	100 to 1000	10 to 50
CC1(C)COC1COC(=O)NCc1ccc2c(c1)C(=O)N(C1CCC(=O)NC1=O)C2 (centres unmarked) [Compound 79, (3,3-dimethyloxetan-2-yl)methyl N-{[2-(2,6-dioxopiperidin-3-yl)-3-oxo-2,3-dihydro-1H-isoindol-5-yl]methyl}carbamate]	100 to 1000	≤ 10
O=C1CCC(N2Cc3ccc(CNC(=O)OCC4(CC5CC5)CC4)cc3C2=O)C(=O)N1 (centres unmarked) [Compound 80, [1-(cyclopropylmethyl)cyclopropyl]methyl N-{[2-(2,6-dioxopiperidin-3-yl)-3-oxo-2,3-dihydro-1H-isoindol-5-yl]methyl}carbamate]	100 to 1000	≤ 10
CC1(COC(=O)NCc2ccc3c(c2)C(=O)N(C2CCC(=O)NC2=O)C3)CS(=O)(=O)C1 (centres unmarked) [Compound 81, (3-methyl-1,1-dioxo-1lambda6-thietan-3-yl)methyl N-{[2-(2,6-dioxopiperidin-3-yl)-3-oxo-2,3-dihydro-1H-isoindol-5-yl]methyl}carbamate]	≤ 100	10 to 50
CC1(COC(=O)NCc2ccc3c(c2)C(=O)N(C2CCC(=O)NC2=O)C3)CCOCC1 (centres unmarked) [Compound 83, (4-methyloxan-4-yl)methyl N-{[2-(2,6-dioxopiperidin-3-yl)-3-oxo-2,3-dihydro-1H-isoindol-5-yl]methyl}carbamate]	100 to 1000	≤ 10
CS(=O)(=O)N1CC(COC(=O)NCc2ccc3c(c2)C(=O)N(C2CCC(=O)NC2=O)C3)C1 (centres unmarked) [Compound 91, (1-methanesulfonylazetidin-3-yl)methyl N-{[2-(2,6-dioxopiperidin-3-yl)-3-oxo-2,3-dihydro-1H-isoindol-5-yl]methyl}carbamate]	100 to 1000	≤ 10
CCC1(CCCOC(=O)NCc2ccc3c(c2)C(=O)N(C2CCC(=O)NC2=O)C3)CC1 (centres unmarked) [Compound 101, 3-(1-ethylcyclopropyl)propyl ((2-(2,6-dioxopiperidin-3-yl)-3-oxoisoindolin-5-yl)methyl)carbamate]	100 to 1000	10 to 50
COc1c(CNC(=O)OCC2CC3(CCC3)C2)ccc2c1C(=O)N(C1CCC(=O)NC1=O)C2 (centres unmarked) [Compound 102, spiro[3.3]heptan-2-ylmethyl ((2-(2,6-dioxopiperidin-3-yl)-4-methoxy-3-oxoisoindolin-5-yl)methyl)carbamate]	≤ 100	10 to 50
COc1cc(CNC(=O)OCC2CC3(CCC3)C2)cc2c1CN(C1CCC(=O)NC1=O)C2=O (centres unmarked) [Compound 103, spiro[3.3]heptan-2-ylmethyl ((2-(2,6-dioxopiperidin-3-yl)-7-methoxy-3-oxoisoindolin-5-yl)methyl)carbamate]	≤ 100	10 to 50
O=C1CCC(N2Cc3c(Cl)cc(CNC(=O)OCC4CC5(CCC5)C4)cc3C2=O)C(=O)N1 (centres unmarked) [Compound 104, spiro[3.3]heptan-2-ylmethyl ((7-chloro-2-(2,6-dioxopiperidin-3-yl)-3-oxoisoindolin-5-yl)methyl)carbamate]	≤ 100	50 to 80
Cc1cc(CNC(=O)OCC2CC3(CCC3)C2)cc2c1CN(C1CCC(=O)NC1=O)C2=O (centres unmarked) [Compound 105, spiro[3.3]heptan-2-ylmethyl ((2-(2,6-dioxopiperidin-3-yl)-7-methyl-3-oxoisoindolin-5-yl)methyl)carbamate]	≤ 100	50 to 80
N#Cc1cc(CNC(=O)OCC2CC3(CCC3)C2)cc2c1CN(C1CCC(=O)NC1=O)C2=O (centres unmarked) [Compound 106, spiro[3.3]heptan-2-ylmethyl ((7-cyano-2-(2,6-dioxopiperidin-3-yl)-3-oxoisoindolin-5-yl)methyl)carbamate]	100 to 1000	50 to 80
O=C1CCC(N2Cc3ccc(CNC(=O)OC(c4ccccc4)C4CC5(CCC5)C4)cc3C2=O)C(=O)N1 (centres unmarked) [Compound 107, phenyl(spiro[3.3]heptan-2-yl)methyl ((2-(2,6-dioxopiperidin-3-yl)-3-oxoisoindolin-5-yl)methyl)carbamate]	100 to 1000	50 to 80
O=C1CCC(N2Cc3ccc(CNC(=O)OC(C4CC4)C4CC5(CCC5)C4)cc3C2=O)C(=O)N1 (centres unmarked) [Compound 108, cyclopropyl(spiro[3.3]heptan-2-yl)methyl ((2-(2,6-dioxopiperidin-3-yl)-3-oxoisoindolin-5-yl)methyl)carbamate]	100 to 1000	10 to 50
O=C1CCC(N2Cc3ccc(CNC(=O)OC(Cc4ccccc4)C4CC5(CCC5)C4)cc3C2=O)C(=O)N1 (centres unmarked) [Compound 109, 2-phenyl-1-(spiro[3.3]heptan-2-yl)ethyl ((2-(2,6-dioxopiperidin-3-yl)-3-oxoisoindolin-5-yl)methyl)carbamate]	100 to 1000	10 to 50
O=C1CCC(N2Cc3ccc(CNC(=O)OC(CC4CC4)C4CC5(CCC5)C4)cc3C2=O)C(=O)N1 (centres unmarked) [Compound 110, 2-cyclopropyl-1-(spiro[3.3]heptan-2-yl)ethyl ((2-(2,6-dioxopiperidin-3-yl)-3-oxoisoindolin-5-yl)methyl)carbamate]	100 to 1000	10 to 50
